# Key:
# WT GlyT2 [1] = target: T1, WT GlyT2 (Homo sapiens, UniProt Q9Y345); assay: Inhibitor concentration–responses on glycine transport currents, two-electrode voltage clamp (control and MβCD-treated oocytes); assay type: cell-based; parameters: expressed in transfected cells; host or cells: Xenopus laevis oocytes injected with in vitro transcribed RNA (pOTV vector); settings: for Reduction of potency after cholesterol depletion: MβCD-treated vs control oocytes
# T1 sequence (Q9Y345 1-797): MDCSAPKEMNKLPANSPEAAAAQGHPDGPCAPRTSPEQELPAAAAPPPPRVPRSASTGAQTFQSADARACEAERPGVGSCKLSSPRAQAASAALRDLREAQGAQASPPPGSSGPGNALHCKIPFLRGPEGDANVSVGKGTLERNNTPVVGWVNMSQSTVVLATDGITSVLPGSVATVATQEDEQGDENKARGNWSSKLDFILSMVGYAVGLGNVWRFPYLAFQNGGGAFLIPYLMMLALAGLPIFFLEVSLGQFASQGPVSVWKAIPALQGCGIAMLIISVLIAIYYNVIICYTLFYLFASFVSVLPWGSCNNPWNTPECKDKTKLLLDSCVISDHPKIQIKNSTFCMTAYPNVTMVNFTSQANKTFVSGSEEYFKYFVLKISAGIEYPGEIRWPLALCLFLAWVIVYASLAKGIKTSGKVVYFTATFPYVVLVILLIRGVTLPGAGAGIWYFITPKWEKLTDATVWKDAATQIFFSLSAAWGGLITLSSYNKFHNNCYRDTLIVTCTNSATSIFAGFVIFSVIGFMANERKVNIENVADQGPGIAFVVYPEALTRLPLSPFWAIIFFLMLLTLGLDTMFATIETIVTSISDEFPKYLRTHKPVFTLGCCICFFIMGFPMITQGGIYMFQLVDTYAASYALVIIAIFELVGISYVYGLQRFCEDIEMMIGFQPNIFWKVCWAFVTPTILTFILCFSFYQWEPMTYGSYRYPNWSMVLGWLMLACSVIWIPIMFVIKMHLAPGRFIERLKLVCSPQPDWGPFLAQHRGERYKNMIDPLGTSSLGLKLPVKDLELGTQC
# Procedure: (§1) Individual oocytes were incubated at 32°C for 30 min in 15 mM MβCD or γCD, suspended in frog Ringer’s solution.
# Because of the slowly reversible nature of the compounds tested, inhibitor concentration–responses were performed cumulatively. An EC50 concentration of glycine was applied until a stable transport current was reached. EC50 concentrations of glycine were used to produce reliable currents for each transporter, and as the inhibitors are non-competitive, application of varying glycine concentrations is unlikely to affect their activity. Increasing concentrations of inhibitors were co-applied with glycine with each concentration producing a distinct plateau before the subsequent concentration was applied. Inhibitor concentration–responses were limited to a maximum concentration of 3 µM to mitigate the risk of changes to the free drug concentration because of micelle formation. Currents after the plateau of each inhibitor concentration were normalized to the current produced by application of glycine alone and fit using the method of least squares: Y=Bottom+(Top−Bottom)/(1+10^[X−LogIC50]), where X is log [inhibitor], Y is current normalized to glycine in the absence of inhibitor, and Top and Bottom are the maximal and minimal plateaus, respectively. The method of least squares was constrained to have the bottom value >0 and the hill slope as −1, enabling the calculation of IC50 values and the extent of inhibition produced by the maximal concentration applied.
# IC50 values are presented as the mean and 95% confidence interval, whereas inhibition values are presented as the mean ± SEM. Data sets are n ≥ 5 from two batches of oocytes.
# As the inhibitors assayed here are slowly reversible, inhibitor concentration–responses were unable to be performed on the same cell after treatment with MβCD. Thus, GlyT2 expression was tested by applying a maximal glycine concentration (300 µM) before treatment with MβCD to deplete membrane cholesterol. After MβCD treatment, oocytes were returned to the electrophysiology set-up and washed for 10 min in recording buffer to remove cyclodextrins. […] After successful depletion, inhibitor concentration–responses were performed as described above (see “Inhibitor concentration–response—mutagenesis” in the Materials and Methods section).
# WT GlyT2 [2] = target: T1, WT GlyT2; assay: Inhibitor washout time course (reversibility), control and MβCD-treated oocytes; assay type: cell-based; parameters: expressed in transfected cells; host or cells: Xenopus laevis oocytes injected with in vitro transcribed RNA (pOTV vector)
# Procedure: as §1
# Reversibility of GlyT2 inhibitors was determined by applying an EC50 concentration of glycine followed by co-application of the inhibitor at an IC50 concentration once a stable current had been achieved. Inhibitors were applied for 4 min as this was sufficient time to produce substantial inhibition for each compound and allowed for their direct comparison. At the conclusion of 4 min (time 0), ND96 buffer was perfused through the recording chamber to wash the oocyte. […] Transport currents were normalized to glycine currents in the absence of inhibitor and converted to % recovery values via Y=It−It=0/Imax−It=0, where Y is % recovery, I is current in nA, Imax is the maximal current produced by the glycine EC50, and t is time in minutes. Washout kinetics were then determined by fitting % recovery values to the first-order rate equation: Y=(Y0−Plateau).e^(−Kt)+Plateau, where Y is the % recovery, Y0 is the point, which crosses the Y-axis (constrained to 0) and increases to the plateau (constrained to between 0 and 100), K is the rate constant (1/t), and t is time in minutes. […] Because of the slowly […] nature of the inhibitors, washout time courses involving cyclodextrin treatment could not be performed on the same cell. […] As these experiments could not occur on the same cell, differences in half-life and maximal recovery were analysed via an unpaired two-tailed t test.
# [3] = MβCD-treated oocytes (15 mM, 30 min, 32 °C; cholesterol depleted)
# [4] = WT GlyT2 in Xenopus laevis oocytes, glycine EC50 co-applied, Table S10
# [5] = MβCD-treated oocytes (15 mM, 30 min, 32°C)
# [6] = MβCD-treated oocytes (15 mM, 30 min, 32 °C), 3 µM
# [7] = WT GlyT2 in Xenopus laevis oocytes, 3 μM, Table S10
# [8] = WT, washout after 4 min IC50 concentration of inhibitor, Table S11
"Inhibition at 1 µM (column head 3 μM, footnote b) (WT GlyT2 [1]; MβCD-treated oocytes (15 mM, 30 min, 32 °C))",IC50 (WT GlyT2 [1]; [3]) [nM],Reduction of potency after cholesterol depletion (WT GlyT2 [1]),"Inhibition at 1 µM (column head 3 μM, footnote b) (WT GlyT2 [1]; WT GlyT2 in Xenopus laevis oocytes, Table S10)",IC50 (WT GlyT2 [1]; [4]) [nM],"Recovery at 30 min (WT GlyT2 [2]; Control oocytes, Table S8)",Recovery at 30 min (WT GlyT2 [2]; [5]),Inhibition at 3 μM (WT GlyT2 [1]; [6]) [%],Inhibition at 3 μM (WT GlyT2 [1]; [7]) [%],"Half-life (transport current recovery) (WT GlyT2 [2]; Control oocytes, Table S8)",Half-life (transport current recovery) (WT GlyT2 [2]; [5]),"Half-life (transport current recovery) (WT GlyT2 [2]; MβCD-treated oocytes (15 mM, 30 min, 32°C), listed as OLLeu)",Half-life (transport current recovery) (WT GlyT2 [2]; [8]),Recovery at 30 Min (WT GlyT2 [2]; [8]),"Inhibition at 3 μM (WT GlyT2 [1]; Control oocytes, 3 µM, Table S7) [%]","IC50 (WT GlyT2 [1]; WT GlyT2 in Xenopus laevis oocytes, glycine EC50 co-applied, Table S10, listed as OLLys) [nM]","Recovery at 30 min (WT GlyT2 [2]; MβCD-treated oocytes (15 mM, 30 min, 32°C), listed as OLLys)",Compound
60.5 ± 5.3^b %,800,does not alter the potency,55.5 ± 5.2^b %,520,45.7%,92.4%,–,–,–,–,–,–,–,–,–,–,"CCCCCCCC/C=C\CCCCCCCC(=O)O[C@H](CC(=O)[O-])C[N+](C)(C)C [Oleoyl-L-Carnitine, oleoyl-L-carnitine]"
–,619,2.4 fold,–,262,–,92.2 ± 3.7 %,64.9 ± 3.8,69.4 ± 3.8,2.3 ± 0.5 min,3.1 ± 0.3 min,unchanged,2.3 ± 0.5 min,51.1 ± 2.7%,–,–,–,"CCCCCCCC/C=C\CCCCCCCC(=O)N[C@@H](CC(C)C)C(=O)O [Oleoyl-L-Leucine, oleoyl-L-leucine]"
–,269,2.3 fold,–,215,–,63.0 ± 4.1%,91.5 ± 1.5,86.6 ± 1.9,–,–,–,–,55.1 ± 1.5%,93.6 ± 1.9,220,no difference was observed,"CCCCCCCC/C=C\CCCCCCCC(=O)N[C@@H](CCCCN)C(=O)O [Oleoyl-L-Lysine, oleoyl-L-lysine]"
–,130,does not alter the potency,–,103,No Recovery,No Recovery,78 ± 4,76.2 ± 2.3,No Recovery,No Recovery,–,No Recovery,No Recovery,–,–,–,"CCCCCCCC/C=C\CCCCCCCC(=O)N[C@@H](Cc1c[nH]c2ccccc12)C(=O)O [Oleoyl-L-Tryptophan, oleoyl-L-tryptophan]"
